pEC50: −log10 of the molar value.

23 molecules from US20260070921A1, “COMPOUND, ENDOPLASMIC RETICULUM STRESS INHIBITOR, PHARMACEUTICAL PRODUCT, OPHTHALMIC AGENT, EYE DROPS, COMPOSITION, AND METHOD FOR PRODUCING COMPOUND” (KYOTO UNIVERSITY, priority 2022, published 2026) can be followed below.

In data set [1] the test system is HEK293 cells. Briefly: Tunicamycin assay (cell viability under ER stress, WST-8). Set-up: key to Efficacy 5 μM (ER stress inhibition activity) / Efficacy 25 μM (ER stress inhibition activity) / Efficacy 100 μM (ER stress inhibition activity): “−” indicates no activity; “+” indicates weak activity; “++” indicates strong activity. The conditions noted are these: for Efficacy 25 μM (ER stress inhibition activity): compound 25 μM 12 to 18 h; for Efficacy 25 μM (ER stress inhibition activity) / Efficacy 100 μM (ER stress inhibition activity) / Efficacy 5 μM (ER stress inhibition activity): then tunicamycin 5 μg/mL 48 h; for Efficacy 100 μM (ER stress inhibition activity): compound 100 μM 12 to 18 h; for Efficacy 5 μM (ER stress inhibition activity): compound 5 μM 12 to 18 h. It is filed as cell-based. The method, then: HEK293 cells were seeded in 96-well plates ([…]) and incubated at 37° C. for 2 hours. The medium was then replaced with 100 μL of DMEM ([…]) containing self-assembling chemicals (20 or more compounds, including compounds of the present disclosure) and 1% DMSO. After incubation with any one of compounds 1 to 6 at a given concentration for 12 to 18 hours, HEK293 cells were treated with tunicamycin (5 μg/mL) or thapsigargin (10 μM) for 48 hours, and cell viability was measured using a WST-8 cell counting kit (Dojindo Laboratories).
Produced compounds XD8 to XD28 were subjected to a tunicamycin assay in the same manner as in Examples 1 to 9. Specifically, HEK293 cells were first seeded in a 96-well plate (1×10^4 cells/well) and incubated at 37° C. for 2 hours. The medium was then replaced with 100 μL of DMEM (10% FBS) containing a self-assembling chemical (each of compounds XD8 to XD28) and […]. After incubation with any of compounds XD8 to XD28 at a concentration of 5.0 μM, 25 μM, or 100 μM for 12 to 18 hours, HEK293 cells were treated with tunicamycin (5 μg/mL) for 48 hours, followed by measuring cell viability by using a WST-8 cell counting kit (Dojindo Laboratories).
In general terms: Tetrazolium assays rely on reduction of a dye to a coloured formazan, in cell work by metabolically active cells.

The subject of data set [2] is HEK293 cells. Briefly: Cell viability assay without ER stress inducer (cytotoxicity, WST-8). It is filed as cell-based. The settings on record: 64 h. Here is the method:
HEK293 cells were treated with compound 1, compound 4, compound 5, or compound 6 (25 μM or 100 μM, respectively) for 64 hours. The vertical axis represents relative cell viability (unit: %), and the horizontal axis represents concentration (unit: μM). Cell viability was measured using a WST-8 cell counting kit. Error bars represent s.d. (n=3).
FIG. 31 is a graph showing the results of a cell viability assay using bafilomycin A1. HEK293 cells were treated with bafilomycin A1 in DMEM (10% FBS) for 48 hours. The vertical axis represents relative cell viability (unit: %), and the horizontal axis represents the concentration of bafilomycin A1 (unit: μM). Cell viability was measured using a WST-8 cell counting kit. Error bars represent s.d. (n=3).
FIG. 32 is a graph showing the results of a cell viability assay using MG132. HEK293 cells were treated with MG132 in DMEM (10% FBS) for 48 hours. The vertical axis represents relative cell viability (unit: t), and the horizontal axis represents the concentration of MG132 (unit: μM). Cell viability was measured using a WST-8 cell counting kit. Error bars represent s.d. (n=3).
The term “Efficacy” denotes ER (endoplasmic reticulum) stress inhibition activity. The term “Toxicity” denotes cytotoxicity. In the ER stress inhibition activity (Efficacy), “−” indicates no activity, “+” indicates weak activity, and “++” indicates strong activity. In addition, “XD7” in Table 1 below represents compound 6. That is, XD7 and compound 6 are the same compound.

Data set [3] deals with HEK293 cells. Briefly: Fluorescence imaging of self-assemblies in living cells (DCVJ). It is filed as cell-based. The conditions noted are these: 100 μM, DCVJ 1.0 μM, 8 h. The method, then: HEK293 cells were incubated with compound 1, 4, 5, or 6 (25 or 100 μM) in the presence of 1.0 μM DCVJ in DMEM (10% FBS). Fluorescence and bright-field images were taken with a CV1000 confocal microscope equipped with a 40× objective lens (Yokogawa Electric Corporation).
The ability of compound 1 and its derivatives, compounds 4 to 6, to form assemblies was also monitored in living cells. […] HEK293 cells were treated with compound 1, 4, 5, or 6 (25 μM or 100 μM) and 1.0 μM of DCVJ for 8 hours. Fluorescence and bright-field images were taken with a CV1000 confocal microscope. HEK293 cells were treated with compound 1, 4, 5, or 6 (25 or 100 μM) and DCVJ (1.0 μM) for 8 hours and observed with a confocal microscope. […] The self-assembling ability of the molecules of compound 6 may be due to its cellular activity at that concentration, even at 25 μM. […] To further support the importance of self-organization formation in cellular activity, dose-response curves for compounds 1 and 6 were determined. The biological activity of the compounds' molecular assembly is expected to be more cooperative than that of the monomer and to show a steeper dose-response curve (Reference Material 18 below). […] Compound 6 is referred to as “selfonamide” below. […] P. A High-Throughput Screen for Aggregation-Based Inhibition in a Large Compound Library. J Med Chem 2007, 50 (10), 2385-2390. https://doi.org/10.1021/jm061317y.

A short description of data set [4]: Dynamic light scattering (DLS) of self-assemblies. It is filed as physicochemical. From the text:
In the graphs on the left, the vertical axis “Z-ave. (nm)” represents the average particle size. In the graphs on the right, the vertical axis “Derived Count Rate (kcps)” represents the derived count rate. The horizontal axis represents the molar concentration (PM) of PBS (pH of 7.4) and DMEM (10% FBS). Error bars represent s.d. (n=3).
“Z-ave.” represents the average size of particles. Error bars represent s.d. (n=3).
“Z-average” represents the average size of particles. Error bars represent s.d. (n=3).

The mark [5] stands for this setting: even at higher concentrations, tunicamycin 5.0 μg/mL 48 h.

Regarding `NS(=O)(=O)c1ccc(Nc2ccnc(N(C(=O)c3sc4cc(F)ccc4c3Cl)C(=O)c3sc4cc(F)ccc4c3Cl)n2)cc1` [TD-4C8], the “Rescue from tunicamycin-induced cell death (secondary screen)” value (shortened to “Rescue … (secondary screen)”) in data set [1] (compound 50 μM, tunicamycin 5.0 μg/mL 48 h) is recorded as “significantly rescued cells from tunicamycin-induced cell death”.
As to `CCCCOc1ccc2c(c1)sc1c(=O)nc3nc(Nc4ccc(S(=O)(=O)NC(=N)N)cc4)ccn3c12` [XD26], in data set [1], the “Efficacy 25 μM (ER stress inhibition activity)” value is recorded as “+” and the “Efficacy 100 μM (ER stress inhibition activity)” value was “++”.
For `CCCCOc1ccc2c(c1)sc1c(=O)nc3nc(Nc4ccc(S(N)(=O)=O)cc4)ccn3c12` [XD16], in data set [1], the “Efficacy 5 μM (ER stress inhibition activity)” value is “−”, the “Efficacy 25 μM (ER stress inhibition activity)” value is “−” and the “Efficacy 100 μM (ER stress inhibition activity)” value is given as “−”.
Consider `NS(=O)(=O)c1ccc(Nc2ccn3c(n2)nc(=O)c2sc4cc(F)c(F)cc4c23)cc1` [XD13], for which, in data set [1], the “Efficacy 5 μM (ER stress inhibition activity)” value was “−”, the “Efficacy 25 μM (ER stress inhibition activity)” value was “++” and the “Efficacy 100 μM (ER stress inhibition activity)” value is “++”.
Turning to `C[C@H](CCC(=O)NCCS(=O)(=O)O)[C@H]1CC[C@H]2[C@@H]3[C@@H](O)C[C@@H]4C[C@H](O)CC[C@]4(C)[C@H]3CC[C@]12C` [TUDCA, reference compound], the “Rescue … (secondary screen)” value in data set [1] (setting [5]) is recorded as “little effect”.
On to `NS(=O)(=O)c1ccc(Nc2ccn3c(n2)nc(=O)c2sc4ccccc4c23)cc1` [compound 4], for which, in data set [2] (up to 100 μM), the Cytotoxicity entry is given as “no obvious cytotoxicity”.
A word on the pEC50: it is −log10 of the EC50, conventionally taken in molar units. As to `O=C(O)CCCc1ccccc1` [PBA, reference compound], the “Rescue … (secondary screen)” value in data set [1] (setting [5]) was “little effect”. Besides, in data set [1] (tunicamycin 5.0 μg/mL 48 h, read-out: EC50 (dose-response curve, Hill equation)), the pEC50 is 3.32.
`NS(=O)(=O)c1ccc(Nc2ccn3c(n2)nc(=O)c2sc4cc(Cl)ccc4c23)cc1` [XD8]: in data set [1], the “Efficacy 5 μM (ER stress inhibition activity)” value is on record as “−”, the “Efficacy 25 μM (ER stress inhibition activity)” value is listed as “+” and the “Efficacy 100 μM (ER stress inhibition activity)” value is on record as “++”.
Take `CCCOc1ccc2c(c1)sc1c(=O)nc3nc(Nc4ccc(S(=O)(=O)NC(=N)N)cc4)ccn3c12` [XD25]: in data set [1], the “Efficacy 25 μM (ER stress inhibition activity)” value was “++” and the “Efficacy 100 μM (ER stress inhibition activity)” value is listed as “+”.
Take `CCCCCCOc1ccc2c(c1)sc1c(=O)nc3nc(Nc4ccc(S(N)(=O)=O)cc4)ccn3c12` [XD17]: in data set [1], the “Efficacy 5 μM (ER stress inhibition activity)” value is listed as “−”, the “Efficacy 25 μM (ER stress inhibition activity)” value is “−” and the “Efficacy 100 μM (ER stress inhibition activity)” value is “+”.
On to `NS(=O)(=O)c1ccc(Nc2ccn3c(n2)nc(=O)c2sc4cc([N+](=O)[O-])ccc4c23)cc1` [XD9], for which, in data set [1], the “Efficacy 5 μM (ER stress inhibition activity)” value is “−”, the “Efficacy 25 μM (ER stress inhibition activity)” value was “++” and the “Efficacy 100 μM (ER stress inhibition activity)” value is “+”.
`CCOc1ccc2c(c1)sc1c(=O)nc3nc(Nc4ccc(S(N)(=O)=O)cc4)ccn3c12` [XD14]: in data set [1], the “Efficacy 5 μM (ER stress inhibition activity)” value is given as “−”, the “Efficacy 25 μM (ER stress inhibition activity)” value is on record as “−” and the “Efficacy 100 μM (ER stress inhibition activity)” value is “−”.
In the case of `COc1ccc2c(c1)sc1c(=O)nc3nc(Nc4ccc(S(=O)(=O)NC(=N)N)cc4)ccn3c12` [XD21], in data set [1], the “Efficacy 25 μM (ER stress inhibition activity)” value is on record as “++” and the “Efficacy 100 μM (ER stress inhibition activity)” value was “++”.
`N=C(N)NS(=O)(=O)c1ccc(Nc2ccn3c(n2)nc(=O)c2sc4cc(OCc5ccccc5)ccc4c23)cc1` [XD28]: the “Efficacy 100 μM (ER stress inhibition activity)” value in data set [1] is “++”.
Turning to `NS(=O)(=O)c1ccc(Nc2ccn3c(n2)nc(=O)c2sc4cc(OCc5ccccc5)ccc4c23)cc1` [XD18], in data set [1], the “Efficacy 5 μM (ER stress inhibition activity)” value is reported as “−”, the “Efficacy 25 μM (ER stress inhibition activity)” value was “−” and the “Efficacy 100 μM (ER stress inhibition activity)” value is recorded as “−”.
Consider `Cc1ccc2c(c1)sc1c(=O)nc3nc(Nc4ccc(S(N)(=O)=O)cc4)ccn3c12` [compound 5], for which the “Ability to rescue cells from tunicamycin-induced ER stress” value (“Ability to rescue cells” for short) in data set [1] (tunicamycin 5.0 μg/mL 48 h) was “lost activity”. Also, the values for the Cytotoxicity entry in data set [2] (at 25 μM) and in data set [2] (at 100 μM) were “no obvious cytotoxicity” and “slightly reduced cell viability”, respectively. This molecule came in with a Size of assemblies/particles in living-cell imaging in data set [3] of 5 µm.
For the molecule `NS(=O)(=O)c1ccc(Nc2ccn3c(n2)nc(=O)c2sc4cc(Br)ccc4c23)cc1` [XD12], in data set [1], the “Efficacy 5 μM (ER stress inhibition activity)” value is recorded as “−”, the “Efficacy 25 μM (ER stress inhibition activity)” value was “+” and the “Efficacy 100 μM (ER stress inhibition activity)” value is listed as “++”.
`NS(=O)(=O)c1ccc(Nc2ccn3c(n2)nc(=O)c2sc4cc5c(cc4c23)OCO5)cc1` [XD10]: in data set [1], the “Efficacy 5 μM (ER stress inhibition activity)” value is on record as “−”, the “Efficacy 25 μM (ER stress inhibition activity)” value is listed as “−” and the “Efficacy 100 μM (ER stress inhibition activity)” value was “−”.
With `CS(=O)(=O)c1ccc(Nc2ccn3c(n2)nc(=O)c2sc4cc(F)ccc4c23)cc1` [compound 3], the “Ability to rescue cells” value in data set [1] (tunicamycin 5.0 μg/mL 48 h) is recorded as “eliminated the ability of the compounds to rescue cells”. Further, the “Self-assembly activity (self-assembling ability)” value in data set [4] was “confirmed to have self-assembly activity”.
Regarding `CCCOc1ccc2c(c1)sc1c(=O)nc3nc(Nc4ccc(S(N)(=O)=O)cc4)ccn3c12` [XD15], in data set [1], the “Efficacy 5 μM (ER stress inhibition activity)” value was “−”, the “Efficacy 25 μM (ER stress inhibition activity)” value is given as “−” and the “Efficacy 100 μM (ER stress inhibition activity)” value was “−”.
`COc1cc2sc3c(=O)nc4nc(Nc5ccc(S(N)(=O)=O)cc5)ccn4c3c2cc1OC` [XD11]: in data set [1], the “Efficacy 5 μM (ER stress inhibition activity)” value is reported as “−”, the “Efficacy 25 μM (ER stress inhibition activity)” value is recorded as “−” and the “Efficacy 100 μM (ER stress inhibition activity)” value was “++”.
Take `O=c1nc2nc(Nc3ccccc3)ccn2c2c1sc1cc(F)ccc12` [compound 2]: the “Ability to rescue cells” value in data set [1] (tunicamycin 5.0 μg/mL 48 h) is “eliminated the ability of the compounds to rescue cells”. Also, in data set [4], the “Self-assembly activity (self-assembling ability)” value is on record as “confirmed to have self-assembly activity”.
Regarding `N=C(N)NS(=O)(=O)c1ccc(Nc2ccn3c(n2)nc(=O)c2sc4cc([N+](=O)[O-])ccc4c23)cc1` [XD20], the “Efficacy 100 μM (ER stress inhibition activity)” value in data set [1] is recorded as “+”.
